Data published in patent US20080114007A1 (priority 2006, published 2008).

Molecular target: CSF-1R (Homo sapiens, UniProt P07333)
Assay: Peptide (non-phosphorylated) assay, fluorescence polarization competition immunoassay
Format: biochemical
Details: 0.7 nM CSF-1R, 308 μM SYEGNSYTFIDPTQ peptide, 1 mM ATP, 80 min; mean of at least three determinations; read-out: c-fms Peptide IC50
How it was run: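 Human CSF-1R kinase reaction started with ATP and run 80 min at room temperature, then stopped with EDTA. Phosphopeptide detected by fluorescence polarization competition using anti-phosphotyrosine antibody and PTK green tracer after 30 min. Controls used 4% DMSO, with EDTA added before reaction start for positive controls.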

CSF-1R, sequence (P07333 20-972): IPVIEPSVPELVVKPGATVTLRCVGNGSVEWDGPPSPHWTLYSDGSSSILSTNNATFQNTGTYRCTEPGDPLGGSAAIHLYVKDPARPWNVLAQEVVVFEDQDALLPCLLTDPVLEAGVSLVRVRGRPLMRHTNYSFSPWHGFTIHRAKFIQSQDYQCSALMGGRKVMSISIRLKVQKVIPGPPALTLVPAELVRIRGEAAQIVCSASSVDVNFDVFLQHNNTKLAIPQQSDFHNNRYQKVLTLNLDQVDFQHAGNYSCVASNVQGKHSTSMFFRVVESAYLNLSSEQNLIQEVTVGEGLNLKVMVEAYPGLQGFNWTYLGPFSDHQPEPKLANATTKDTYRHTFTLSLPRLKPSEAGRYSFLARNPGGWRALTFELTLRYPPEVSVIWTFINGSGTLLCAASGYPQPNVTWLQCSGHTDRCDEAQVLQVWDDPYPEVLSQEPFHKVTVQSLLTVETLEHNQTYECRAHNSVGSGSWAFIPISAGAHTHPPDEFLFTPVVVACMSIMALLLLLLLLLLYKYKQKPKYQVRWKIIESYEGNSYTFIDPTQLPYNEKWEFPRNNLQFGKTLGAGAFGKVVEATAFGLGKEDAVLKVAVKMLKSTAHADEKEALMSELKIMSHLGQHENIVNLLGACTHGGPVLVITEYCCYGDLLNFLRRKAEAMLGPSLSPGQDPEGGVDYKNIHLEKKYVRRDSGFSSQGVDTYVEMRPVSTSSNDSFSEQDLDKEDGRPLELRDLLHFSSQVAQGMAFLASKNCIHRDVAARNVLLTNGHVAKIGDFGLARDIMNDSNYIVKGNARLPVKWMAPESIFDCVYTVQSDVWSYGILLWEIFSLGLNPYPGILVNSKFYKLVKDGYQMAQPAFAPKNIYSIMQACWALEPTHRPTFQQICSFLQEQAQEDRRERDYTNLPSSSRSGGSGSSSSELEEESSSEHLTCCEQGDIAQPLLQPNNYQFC

| IC50 [nM] | SMILES |
| --- | --- |
| 0.4 | CCc1ccc(-n2cc(C(=O)NOC)c(=O)c3cnc(Nc4ccc(C5CCN(CC)CC5)cc4)nc32)cc1 [Cpd 157, 8-(4-ethyl-phenyl)-2-[4-(1-ethyl-piperidin-4-yl)-phenylamino]-5-oxo-5,8-dihydro-pyrido[2,3-d]pyrimidine-6-carboxylic acid methoxy-amide] |
| 1 | CCONC(=O)c1cn(C2CCCCC2)c2nc(Nc3ccc(CCN4CCOCC4)cc3)ncc2c1=O [Cpd 21, 8-cyclohexyl-2-[4-(2-morpholin-4-yl-ethyl)-phenylamino]-5-oxo-5,8-dihydro-pyrido[2,3-d]pyrimidine-6-carboxylic acid ethoxy-amide] |
| 0.88 | CONC(=O)c1cn(-c2ccc3c(c2)CCC3)c2nc(Nc3ccc(CCN4CCCC(F)C4)cc3)ncc2c1=O (stereo not shown) [Cpd 256, 2-{4-[2-(3-fluoro-piperidin-1-yl)-ethyl]-phenylamino}-8-indan-5-yl-5-oxo-5,8-dihydro-pyrido[2,3-d]pyrimidine-6-carboxylic acid methoxy-amide] |
| 0.52 | CONC(=O)c1cn(-c2ccc3c(c2)CCC3)c2nc(Nc3ccc(C4CCCCN4C)cc3)ncc2c1=O (stereo not shown) [Cpd 243, 8-indan-5-yl-2-[4-(1-methyl-piperidin-2-yl)-phenylamino]-5-oxo-5,8-dihydro-pyrido[2,3-d]pyrimidine-6-carboxylic acid methoxy-amide] |
| 1.3 | CONC(=O)c1cn(C2CCCCC2)c2nc(Nc3ccc(CN4CCCC4=O)cc3)ncc2c1=O [Cpd 12, 8-cyclohexyl-5-oxo-2-[4-(2-oxo-pyrrolidin-1-ylmethyl)-phenylamino]-5,8-dihydro-pyrido[2,3-d]pyrimidine-6-carboxylic acid methoxy-amide] |
| 16 | CC(C)ONC(=O)c1cn(-c2ccc3c(c2)CCC3)c2nc(Nc3ccc(S(=O)(=O)N(C)C)cc3)ncc2c1=O [Cpd 137, 2-(4-dimethylsulfamoyl-phenylamino)-8-indan-5-yl-5-oxo-5,8-dihydro-pyrido[2,3-d]pyrimidine-6-carboxylic acid isopropoxy-amide] |
| 4.2 | CCONC(=O)c1cn(-c2ccc3c(c2)CCC3)c2nc(Nc3ccc(S(=O)(=O)N(C)C)cc3)ncc2c1=O [Cpd 136, 2-(4-dimethylsulfamoyl-phenylamino)-8-indan-5-yl-5-oxo-5,8-dihydro-pyrido[2,3-d]pyrimidine-6-carboxylic acid ethoxy-amide] |
| 3.7 | C#Cc1ccc(-n2cc(C(=O)NOC)c(=O)c3cnc(Nc4ccc(CCN5CCCC5)cc4)nc32)cc1 [Cpd 32, 8-(4-ethynyl-phenyl)-5-oxo-2-[4-(2-pyrrolidin-1-yl-ethyl)-phenylamino]-5,8-dihydro-pyrido[2,3-d]pyrimidine-6-carboxylic acid methoxy-amide] |
| 28 | CN1CCN(CCc2ccc(Nc3ncc4c(=O)c(C(N)=O)cn(-c5ccc(F)c(Cl)c5)c4n3)cc2)CC1 [Cpd 3, 8-(3-chloro-4-fluoro-phenyl)-2-{4-[2-(4-methyl-piperazin-1-yl)-ethyl]-phenylamino}-5-oxo-5,8-dihydro-pyrido[2,3-d]pyrimidine-6-carboxylic acid amide] |
| 2.5 | O=C(NCCO)c1cn(-c2ccc3c(c2)CCC3)c2nc(Nc3cccc(N4CCNCC4)c3)ncc2c1=O [Cpd 66, 8-indan-5-yl-5-oxo-2-(3-piperazin-1-yl-phenylamino)-5,8-dihydro-pyrido[2,3-d]pyrimidine-6-carboxylic acid (2-hydroxy-ethyl)-amide] |
| 1.5 | CONC(=O)c1cn(-c2ccc3c(c2)CCC3)c2nc(Nc3ccccc3)ncc2c1=O [Cpd 300, 8-indan-5-yl-5-oxo-2-phenylamino-5,8-dihydro-pyrido[2,3-d]pyrimidine-6-carboxylic acid methoxy-amide] |
| 9.7 | CCONC(=O)c1cn(-c2ccc(CC)cc2)c2nc(Nc3ccc(C4CCN(CC(F)(F)F)CC4)cc3)ncc2c1=O [Cpd 189, 8-(4-ethyl-phenyl)-5-oxo-2-{4-[1-(2,2,2-trifluoro-ethyl)-piperidin-4-yl]-phenylamino}-5,8-dihydro-pyrido[2,3-d]pyrimidine-6-carboxylic acid ethoxy-amide] |
| 0.58 | CCc1ccc(-n2cc(C(=O)NOC)c(=O)c3cnc(Nc4ccc(CCN5CCNC(=O)C5)cc4)nc32)cc1 [Cpd 224, 8-(4-ethyl-phenyl)-5-oxo-2-{4-[2-(3-oxo-piperazin-1-yl)-ethyl]-phenylamino}-5,8-dihydro-pyrido[2,3-d]pyrimidine-6-carboxylic acid methoxy-amide] |
| 0.54 | CONC(=O)c1cn(-c2ccc3c(c2)CCC3)c2nc(Nc3ccc(C4=CCN(C)CC4)cc3)ncc2c1=O [Cpd 235, 8-indan-5-yl-2-[4-(1-methyl-1,2,3,6-tetrahydro-pyridin-4-yl)-phenylamino]-5-oxo-5,8-dihydro-pyrido[2,3-d]pyrimidine-6-carboxylic acid methoxy-amide] |
| 4.5 | CN(C)C(=O)Cc1ccc(Nc2ncc3c(=O)c(C(N)=O)cn(-c4ccc5c(c4)CCC5)c3n2)cc1 [Cpd 118, 2-(4-dimethylcarbamoylmethyl-phenylamino)-8-indan-5-yl-5-oxo-5,8-dihydro-pyrido[2,3-d]pyrimidine-6-carboxylic acid amide] |
| 2.1 | CCONC(=O)c1cn(C2CCCCC2)c2nc(Nc3ccc(N4CC(C)NC(C)C4)cc3)ncc2c1=O (stereo not shown) [Cpd 25, 8-cyclohexyl-2-[4-(3,5-dimethyl-piperazin-1-yl)-phenylamino]-5-oxo-5,8-dihydro-pyrido[2,3-d]pyrimidine-6-carboxylic acid ethoxy-amide] |
| 1.5 | CCc1ccc(-n2cc(C(=O)NOC)c(=O)c3cnc(Nc4ccc5c(c4)N(C(C)=O)CC5)nc32)cc1 [Cpd 281, 2-(1-acetyl-2,3-dihydro-1H-indol-6-ylamino)-8-(4-ethyl-phenyl)-5-oxo-5,8-dihydro-pyrido[2,3-d]pyrimidine-6-carboxylic acid methoxy-amide] |
| 0.8 | CCc1ccc(-n2cc(C(=O)NOC)c(=O)c3cnc(Nc4ccc5[nH]ccc5c4)nc32)cc1 [Cpd 285, 8-(4-ethyl-phenyl)-2-(1H-indol-5-ylamino)-5-oxo-5,8-dihydro-pyrido[2,3-d]pyrimidine-6-carboxylic acid methoxy-amide] |
| 0.72 | CCc1ccc(-n2cc(C(=O)NOC)c(=O)c3cnc(Nc4ccc(CCN5CCCC(F)(F)C5)cc4)nc32)cc1 [Cpd 232, 2-{4-[2-(3,3-difluoro-piperidin-1-yl)-ethyl]-phenylamino}-8-(4-ethyl-phenyl)-5-oxo-5,8-dihydro-pyrido[2,3-d]pyrimidine-6-carboxylic acid methoxy-amide] |
| 10 | CONC(=O)c1cn(-c2cnc3c(c2)CCC3)c2nc(Nc3ccc(CCO)cc3)ncc2c1=O [Cpd 227, 8-(6,7-dihydro-5H-[1]pyrindin-3-yl)-2-[4-(2-hydroxy-ethyl)-phenylamino]-5-oxo-5,8-dihydro-pyrido[2,3-d]pyrimidine-6-carboxylic acid methoxy-amide] |
| 1.1 | CCc1ccc(-n2cc(C(=O)NOC)c(=O)c3cnc(Nc4ccc(NCCCOC)cc4)nc32)cc1 [Cpd 213, 8-(4-ethyl-phenyl)-2-[4-(3-methoxy-propylamino)-phenylamino]-5-oxo-5,8-dihydro-pyrido[2,3-d]pyrimidine-6-carboxylic acid methoxy-amide] |
| 1.5 | CONC(=O)c1cn(-c2ccc3c(c2)CCC3)c2nc(Nc3ccc(CCNC4C5CC6CC(C5)CC4C6)cc3)ncc2c1=O (stereo not shown) [Cpd 107, 2-{4-[2-(adamantan-2-ylamino)-ethyl]-phenylamino}-8-indan-5-yl-5-oxo-5,8-dihydro-pyrido[2,3-d]pyrimidine-6-carboxylic acid methoxy-amide] |
| 0.5 | CCc1ccc(-n2cc(C(=O)NOC)c(=O)c3cnc(Nc4ccc(OC5CCN(CC)CC5)cc4)nc32)cc1 [Cpd 310, 8-(4-ethyl-phenyl)-2-[4-(1-ethyl-piperidin-4-yloxy)-phenylamino]-5-oxo-5,8-dihydro-pyrido[2,3-d]pyrimidine-6-carboxylic acid methoxy-amide] |
| 0.67 | CONC(=O)c1cn(-c2ccc3c(c2)CCC3)c2nc(Nc3ccc(CCN4CC[C@H](O)C4)cc3)ncc2c1=O [Cpd 255, 2-(4-{2-[(3S)-(3-hydroxy-pyrrolidin-1-yl)]-ethyl}-phenylamino)-8-indan-5-yl-5-oxo-5,8-dihydro-pyrido[2,3-d]pyrimidine-6-carboxylic acid methoxy-amide] |
| 3 | CCc1ccc(-n2cc(C(=O)NOC)c(=O)c3cnc(Nc4ccc(CC(=O)NN5CCCCC5)cc4)nc32)cc1 [Cpd 104, 8-(4-ethyl-phenyl)-5-oxo-2-[4-(piperidin-1-ylcarbamoylmethyl)-phenylamino]-5,8-dihydro-pyrido[2,3-d]pyrimidine-6-carboxylic acid methoxy-amide] |
| 0.58 | CONC(=O)c1cn(-c2ccc3c(c2)CCC3)c2nc(Nc3ccc(C4CCN(C(C)C)CC4)cc3)ncc2c1=O [Cpd 111, 8-indan-5-yl-2-[4-(1-isopropyl-piperidin-4-yl)-phenylamino]-5-oxo-5,8-dihydro-pyrido[2,3-d]pyrimidine-6-carboxylic acid methoxy-amide] |
| 180 | CN1CCN(CCc2ccc(Nc3ncc4c(=O)c(C(=O)N5CCCCC5)cn(-c5ccc6c(c5)CCC6)c4n3)cc2)CC1 [Cpd 64, 8-indan-5-yl-2-{4-[2-(4-methyl-piperazin-1-yl)-ethyl]-phenylamino}-6-(piperidine-1-carbonyl)-8H-pyrido[2,3-d]pyrimidin-5-one] |

| SMILES | IC50 [nM] |
| --- | --- |
| CCc1ccc(-n2cc(C(=O)NOC)c(=O)c3cnc(Nc4ccc([C@]5(O)CCN(C)C[C@H]5O)cc4)nc32)cc1 [Cpd 249, 2-{4-[(3R,4R)-(3,4-dihydroxy-1-methyl-piperidin-4-yl)]-phenylamino}-8-(4-ethyl-phenyl)-5-oxo-5,8-dihydro-pyrido[2,3-d]pyrimidine-6-carboxylic acid methoxy-amide] | 0.55 |
